Test results from patent US20210137953A1, “Inhibitors of Mcl-1 and Akt Binding, Pharmaceutical Compositions, and Uses in Treating Cancer” (Emory University, priority 2019, published 2021).
Entries after “also recorded” stand apart in the source; their conditions may differ.

Columns and labels:
[1] = tested on: human lung cancer cells; assay: sulforhodamine B cytotoxicity screening; format: cell-based; settings: sulforhodamine B assay; among the top 500 small molecules from docking
Description: The small molecules were ranked according to their energy scores. The top 500 small molecules based on predicted binding energies were selected for screening of cytotoxicity in human lung cancer cells by sulforhodamine B assay as described in Park et al. Novel small molecule inhibitors of Bcl-XL to treat lung cancer. Cancer Res 2013;73: 5485-96.

[2] = target: T1, GST-tagged WT Akt (Homo sapiens, UniProt P31749); assay: thermal shift assay, GST-WT Akt; format: binding; settings: purified GST-WT Akt, increasing concentrations
T1 construct: made in house
Protocol: (§1) To test whether PH-687 specifically binds to the PH domain in Akt, recombinant GST-tagged WT Akt, PH deletion Akt mutant (DPH), and PH domain-only proteins were generated and PH-687 compound/Akt protein binding were measured using a thermal shift assay. Thermal shift assay is a technique to study protein/small-molecule interactions that enhance protein thermal stability and increase melting temperatures as described in Jin et al. Glutamate dehydrogenase 1 signals through antioxidant glutathione peroxidase 1 to regulate redox homeostasis and tumor growth. Cancer Cell, 2015, 27:257-70. […] Because PH-687 can bind to the Mcl-1-binding site (i.e., PH domain) on Akt protein, the effect of PH-687 on Mcl-1/Akt interaction was tested.

[3] = target: T2, GST-PH domain-only Akt protein (Homo sapiens, UniProt P31749); assay: thermal shift assay, PH domain-only protein; format: binding; settings: purified GST-PH-mutant (PH domain-only) protein, increasing concentrations
T2 construct: PH domain-only proteins were generated; made in house
Protocol: as §1

[4] = tested on: GST-DPH (PH deletion Akt mutant); assay: thermal shift assay, PH deletion Akt mutant; format: binding; settings: GST-DPH protein, increasing concentrations
Protocol: as §1

[5] = target: T3, Mcl-1/Akt complexes (Homo sapiens, UniProt P31749); assay: Co-IP of Mcl-1/Akt interaction in H1299 cells; format: cell-based; settings: increasing concentrations
T3 construct: treatment of H1299 cells with increasing concentrations of PH-687; endogenous in cells; host or cells: H1299
Protocol: To evaluate the mechanism by which Mcl-1 regulates Akt, coimmunoprecipitation (co-IP) experiments using Mcl-1 or Akt antibody were performed in H1299 parental versus H1299 Mcl-1^−/^− cells. […] Because Akt antibody could pull-down Mcl-1 protein only in H1299 parental, but not in H1299 Mcl-1^−/^− cells, this indicates a potential direct interaction between Mcl-1 and Akt in human lung cancer cells. To further verify this interaction, similar co-IP experiments were carried out in a cell-free system using purified recombinant Mcl-1 and Akt proteins. Consistently, Mcl-1 also directly interacted with Akt in the cell-free system. To detect the intracellular localization(s) of Akt/Mcl-1 interaction, a Duolink™ proximity ligation assay (PLA) system was employed to detect Akt/Mcl-1 interaction in H1299 cells and H460 cells according to the manufacturer's instructions. Two primary antibodies raised in different species (i.e., Mcl-1 antibody from rabbit and Akt antibody from mouse) are used to detect two unique protein targets. […] PLA signals were detected by fluorescence microscopy as discrete spots. […]
To test whether PH-687 specifically binds to the PH domain in Akt, recombinant GST-tagged WT Akt, PH deletion Akt mutant (DPH), and PH domain-only proteins were generated and PH-687 compound/Akt protein binding were measured using a thermal shift assay. […]

[6] = tested on: Akt; assay: Akt activity in human lung cancer cell lines; format: cell-based
[7] = tested on: various human lung cancer cell lines (H1299, H157, H460); assay: colony formation / growth in various human lung cancer cell lines; format: cell-based
[8] = tested on: Akt PH/KD interaction; assay: mammalian two-hybrid system (SEAP), PH/KD interaction in H1299 cells; format: cell-based, human; settings: H1299 cells, 0, 0.5, 1, 2 mmol/L, 24 hours
Description: Because Mcl-1 can directly interact with Akt at the PH domain, experiments were designed to test whether Mcl-1 affects the intramolecular PH domain/KD interaction. GST-tagged KD, GFP-tagged PH domain, and Flag-tagged WT Mcl-1 or DPEST Mcl-1 mutant were used for co-transfection and co-IP experiments. […] To further confirm these findings, a mammalian two-hybrid system was employed to measure the PH/KD interaction. Co-transfection of Gal4BD-Akt KD and VP16AD-Akt PH along with pG5SEAP in cells drives the expression of secreted alkaline phosphatase (SEAP) when KD/PH interaction occurs. To test the effect of Mcl-1 on KD/PH interaction, the two-hybrid H1299 Mcl-1^−/^− cells were co-transfected with WT Mcl-1 or DPEST mutant Mcl-1, followed by analysis of SEAP activity. […] Because the PEST domain is required for Mcl-1/Akt binding, it is proposed that Mcl-1 disruption of intramolecular PH domain/kinase domain interactions may occur through Mcl-1/Akt binding.
(§2) To test whether PH-687-mediated Mcl-1/Akt dissociation enhances interaction between the PH and KD domains, a mammalian two-hybrid system was employed to measure the PH/KD interaction in H1299 cells using Gal4BD-Akt KD, VP16AD-Akt PH, and pG5SEAP in the absence or presence of PH-687.

[9] = target: T4, Akt/PDK1 (Homo sapiens, UniProt P31749); assay: interaction of Akt with PDK1 in H1299 cells; format: cell-based
T4 construct: endogenous in cells; host or cells: H1299
Protocol: (§3) PIP3 directly binds to the PH domain and induces a conformational change in Akt, which enables PDK1 or mTORC2 to access and phosphorylate Akt at T308 or S473. To test whether Mcl-1, similar to PIP3, may also affect the interactions between Akt and PDK1 or mTORC2, co-IP experiments using Akt antibody were performed in H1299 parental cells or H1299 Mcl-1^−/^− cells expressing WT Mcl-1, DPEST Mcl-1 mutant, or empty vector, followed by Western blot using PDK1 or mTORC2 antibody, respectively. Results reveal that knockout of Mcl-1 disrupted Akt/PDK1 and Akt/mTORC2 interactions, and expression of WT Mcl-1, but not PEST deletion mutant, restored Akt/PDK1 and Akt/mTORC2 interactions.
as §2

[10] = target: T5, Akt/mTORC2 (Homo sapiens, UniProt P31749); assay: interaction of Akt with mTORC2 in H1299 cells; format: cell-based
T5 construct: endogenous in cells; host or cells: H1299
Protocol: as §3, §2

[11] = tested on: H1299 parental cells; assay: colony formation assay, H1299 parental cells; format: cell-based, human; settings: H1299 cells, 0, 0.1, 0.5, 1 mmol/L
Protocol: (§4) To further test whether PH-687 specifically functions through targeting Mcl-1/AKT signaling in lung cancer cells, H1299 parental cells, H1299 Mcl-1^−/^− cells and H1299 cells expressing Akt siRNA were treated with increasing concentrations of PH-687 (0, 0.1, 0.5, 1 mmol/L), followed by colony formation assay.

[12] = tested on: H1299 Mcl-1−/− cells; assay: colony formation assay, H1299 Mcl-1−/− cells; format: cell-based, human; settings: knockout of Mcl-1 by CRISPR/cas9, vs H1299 parental; 0, 0.1, 0.5, 1 mmol/L
Protocol: as §4

[13] = tested on: H1299 cells expressing Akt siRNA; assay: colony formation assay, H1299 cells expressing Akt siRNA; format: cell-based, human; settings: knockdown of Akt by Akt siRNA, vs H1299 parental; 0, 0.1, 0.5, 1 mmol/L
Protocol: as §4

[14] = tested on: Akt phosphorylation; assay: growth factor-induced Akt phosphorylation in H1299 cells; format: cell-based, human; settings: 2 mmol/L, 1 hour, EGF 100 ng/mL, IGF 10 ng/mL or insulin 1 mg/mL
Protocol: To test whether Mcl-1 or PH-687 also affects Akt activation by growth factors such as EGF, IGF, or insulin, first, H1299 parental and H1299 Mcl-1^−/^− cells were treated with EGF (100 ng/mL), IGF (10 ng/mL), or insulin (1 mg/mL) for 1 hour, followed by analysis of Akt phosphorylation. […] Knockout of Mcl-1 blocked EGF, IGF, and insulin-induced Akt phosphorylation at S473 and T308. Second, H1299 cells were treated with EGF (100 ng/mL), IGF (10 ng/mL), or insulin (1 mg/mL) in the absence or presence of PH-687 (2 mmol/L) for 1 hour, followed by analysis of Akt phosphorylation. Results reveal that PH-687 inhibited EGF, IGF, and insulin-induced Akt phosphorylation at S473 and T308.

[15] = tested on: NSCLC (H1299) xenografts; assay: H1299 lung cancer xenografts in nude mice; format: in vivo
Protocol: Nu/Nu nude mice with H1299 lung cancer xenografts were treated with increasing doses of PH-687 for 4 weeks. Tumor volume was measured once every 4 days. After 28 days, mice were sacrificed and the tumors were removed, photographed, and analyzed.
(§5) To test the antitumor potency of PH-687 in vivo, nude mice with NSCLC (i.e., H1299) xenografts were treated with increasing doses (0, 30, 60, and 90 mg/kg/day) of PH-687 for 4 weeks.
(§6) Six-week-old male nude mice were purchased from Harlan and housed under pathogen-free conditions. H1299 cells were subcutaneously implanted into mouse flanks. Tumor bearing mice were randomly grouped and tumors were allowed to grow to an average volume of 100 mm3 before treatment. Mice were treated with PH-687 through intraperitoneal injection (i.p) at the indicated dose. During treatment, tumor volumes were measured by caliper once every 4 days.
Paraffin-embedded human lung tissue samples from 208 patients with NSCLC were obtained. Tissue microarray was constructed with replicate cores of tumor and adjacent normal lung. After deparaffinization, rehydration, inactivation of endogenous peroxidase, and antigen retrieval, IHC staining was performed. The following primary antibody dilutions were used: anti-Mcl-1 (1:300), anti-pAKT S473 (1:100), anti-pAKT T308 (1:100), anti-Ki67 (1:500), and anti-active caspase-3 (1:100). Ki67-positive cells and active caspase-3-positive cells in tumor tissues were scored. Percentage of positive cells was determined from three separate fields in each of three independent tumor samples. The semiquantitative evaluation of IHC staining of Mcl-1 and pAkt was carried out using an immunoscore based on both the percentage of stained cells and staining intensity.

[16] = toxicity in xenograft-bearing mice (body weight, blood chemistry, blood counts); format: in vivo; settings: 30-90 mg/kg/day
Protocol: as §5, §6

[17] = harvested tumor tissues after treatment

T3 sequence (P31749 whole entry, one chain of several): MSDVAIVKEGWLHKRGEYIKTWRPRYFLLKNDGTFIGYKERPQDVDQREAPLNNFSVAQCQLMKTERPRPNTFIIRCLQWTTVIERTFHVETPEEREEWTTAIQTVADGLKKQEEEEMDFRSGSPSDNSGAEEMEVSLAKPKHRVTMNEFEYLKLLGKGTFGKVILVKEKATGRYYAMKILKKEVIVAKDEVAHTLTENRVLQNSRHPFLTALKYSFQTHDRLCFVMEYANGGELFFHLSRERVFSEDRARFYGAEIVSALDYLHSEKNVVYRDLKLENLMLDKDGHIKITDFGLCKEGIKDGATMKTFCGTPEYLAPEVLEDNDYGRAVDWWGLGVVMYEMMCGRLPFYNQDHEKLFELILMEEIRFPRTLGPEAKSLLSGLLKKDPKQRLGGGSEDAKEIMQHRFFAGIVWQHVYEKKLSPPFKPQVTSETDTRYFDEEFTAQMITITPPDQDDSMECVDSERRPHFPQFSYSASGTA
T1 sequence (P31749 whole entry): as the sequence (P31749 whole entry, one chain of several) above
T5 sequence (P31749 whole entry): as the sequence (P31749 whole entry, one chain of several) above
T4 sequence (P31749 whole entry): as the sequence (P31749 whole entry, one chain of several) above
T2 sequence (P31749 5-108 limits assumed): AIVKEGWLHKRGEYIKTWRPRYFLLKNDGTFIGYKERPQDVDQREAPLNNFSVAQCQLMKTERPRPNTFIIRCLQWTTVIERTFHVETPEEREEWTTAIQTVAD

SMILES: N=c1ccn2c(n1)OC1C(OP(=O)(O)O)C(CO)OC12 (stereo not shown) [PH-687, 2-(hydroxymethyl)-6-imino-2,3,3a,9a-tetrahydro-6H-furo[2′,3′:4,5]oxazolo[3,2-a]pyrimidin-3-yl dihydrogen phosphate]
- activity against human lung cancer cells (cytotoxicity) [1]: most potent activity
- Tm (melting temperature) [2]: Dose-dependent increases in Tm
- Tm (melting temperature) [3]: Dose-dependent increases in Tm
- Tm (melting temperature) [4]: no significant increase in Tm
- dissociation of Mcl-1/Akt complexes [5]: dose-dependent dissociation of Mcl-1/Akt complexes
- Akt activity [6]: significantly reduced Akt activity
- cell growth [7]: growth inhibition
- PH/KD interaction [8]: increased PH/KD interaction in a dose-dependent manner
- interaction of Akt with PDK1 [9]: dose dependent decreased interaction
- interaction of Akt with mTORC2 [10]: dose dependent decreased interaction
- cell growth (colony formation) [11]: growth inhibition in a dose-dependent manner
- inhibitory effect on cell growth (colony formation) [12]: reduced the inhibitory effect
- inhibitory effect on cell growth (colony formation) [13]: reduced the inhibitory effect
- EGF, IGF, and insulin-induced Akt phosphorylation at S473 [14]: inhibited
- EGF, IGF, and insulin-induced Akt phosphorylation at T308 [14]: inhibited
- Ki67 level in tumor tissues (IHC) [15, 17]: decreased levels
- apoptosis (active caspase-3) in tumor tissues (IHC) [15, 17]: increased apoptosis
- pAkt (S473) level in tumor tissues (IHC) [15, 17]: decreased levels
- pAkt (T308) level in tumor tissues (IHC) [15, 17]: decreased levels
- tumor growth (tumor volume) ([15]; nude mice, 0, 30, 60, 90 mg/kg/day i.p., 4 weeks): suppressed tumor growth in a dose-dependent manner; also recorded: suppresses tumor growth
- increase in alanine aminotransferase [16]: no significant increase
- increase in aspartate aminotransferase [16]: no significant increase
- increase in blood urea nitrogen [16]: no significant increase
- reduction in PLT [16]: no significant
- reduction in RBC [16]: no significant
- reduction in WBC [16]: no significant
- reduction in hemoglobin [16]: no significant
- weight loss [16]: no significant weight loss
